Experimental data published in patent US20040071787A1, “Pharmacologic, therapeutic and diagnostic regulation of FGF-1 export” (Maine Medical Center Research Institute, priority 1996, published 2004).
Entries after “also recorded” stand apart in the source; their conditions may differ. Starred links: 1 amine or outer side, 2 acyl side, 3 side chain; linkers in the order of their positions; H or OH if unused. Positions of bridges follow the written chain, without caps; N, C: chain ends. Non-standard residues stand in square brackets, D forms with d. Residues, ends and D or L forms follow the SMILES beside them. Chains are numbered I, II in the order given. Actinocin(9to1) = Cc1c2oc3c(C)ccc(C(=O)[*:1])c3nc-2c(C(=O)[*:2])c(N)c1=O; NMeV = CN[C@H](C(=O)O)C(C)C; Sar = CNCC(=O)O

Tests used:
[1] = tested on: NIH 3T3 FGF-1-β-gal:p65 Syn-1 co-transfectants; assay: Effects of pharmacologic inhibitors on heat shock induced release of p40; type: cell-based, murine; settings: heat shock 42° C. for 100 min
Protocol: (§1) Stable NIH 3T3 FGF-1:β-gal transfectants were co-transfected with either p65 Syn-1, p65(Δ120-214) or p40 and maintained in Dulbecco's modified Eagle's medium (DMEM, GIBCO-BRL, Grand Island, N.Y.) containing 10% (v/v) bovine calf serum (BCS, Hyclone, Logan, Utah), 1× antibiotic-antimycotic (GIBCO-BRL) and 200 μg/ml G418 (GIBCO-BRL) and 250 μg/ml hygromycin (Boehringer Mannheim, Indianapolis, Ind.) on sterile tissue culture dishes coated with 10 μg/cm^2 human fibronectin prepared from human plasma by affinity adsorption to a column of immobilized type I collagen by methods well known in the art. Confluent monolayers of co-transfectants were rinsed with DMEM containing 4 U/ml heparin (Upjohn, Kalamazoo, Mich.) and subjected to heat shock (42° C. for 100 min) in DMEM containing 4 U/ml heparin and 0.5% BCS as described (Jackson et al., Proc. Nat. Acad. Sci. USA 89:10691, 1992). For each Syn-1 construct, three independent co-transfectant clones were tested.
Following heat shock, conditioned media were collected, filtered using 0.2 μm filters (Millipore, Bedfore, Mass. ) according to the supplier's recommendations, and activated with 0.1% (w/v) dithiothreitol (DTT, Sigma, St. Louis, Mo.) for 2 h at 37° C. (Jackson et al., J. Biol. Chem. 270:33, 1995). Conditioned media were then passed over a column of heparin-Sepharose™ CL-6B (Pharmacia Biotech, Piscataway, N.J.) equilibrated and eluted with 50 mM Tris pH 7.4 containing 10 mM EDTA (TE buffer, TEB). Following TEB washing, the column was eluted with 1.5 M NaCl in TEB and the eluate collected and concentrated using a Centricon™ 10 concentrator (Amicon, Inc., Beverly, Mass.) according to the manufacturer's instructions. Aliquots of the concentrated eluates were analyzed by 10% sodium dodecylsulfate polyacrylamide gel electrophoresis (SDS-PAGE) as described (Jackson et al., J. Biol Chem. 270:33, 1995). Electrophoretically separated samples were further characterized by immunoblot analysis as described (Jackson et al., Proc. Nat. Acad. Sci. USA 89:10691, 1992). […]

[2] = tested on: FGF-1-NIH 3T3 transfectants; settings: agent in the media of cultured cells exposed to heat shock; cited from earlier work
[3] = tested on: NIH 3T3 FGF-1-β-gal:p65 Syn-1 co-transfectants; assay: Heat shock induced release of FGF-1-β-gal and Syn-1 from co-transfectants, immunoblot of heparin binding fraction of conditioned medium; type: cell-based, murine; settings: heat shock 41.5° C. for 90 min; concentration dependent; FIG. 17
Protocol: as §1, with “Confluent monolayers of co-transfectants were rinsed with DMEM containing 4 U/ml heparin (Upjohn, Kalamazoo, Mich.) and subjected to heat shock (42° C. for 100 min) in DMEM containing 4 U/ml heparin and 0.5% BCS as described (Jackson et al., Proc.” left out, “For each Syn-1 construct, three independent co-transfectant clones were tested.” left out
Following heat shock, conditioned media were collected, filtered using 0.2 μm filters (Millipore, Bedfore, Mass. ) according to the supplier's recommendations, and activated with 0.1% (w/v) dithiothreitol (DTT, Sigma, St. Louis, Mo.) for 2 h at 37° C. […] Aliquots of the concentrated eluates were analyzed by 10% sodium dodecylsulfate polyacrylamide gel electrophoresis (SDS-PAGE) as described (Jackson et al., J. Biol Chem. 270:33, 1995). […]
In this Example, the effects of members of the amlexanox family of pharmacologic agents known to bind to S100A13 (Oyama et al., Biochem. Biophys. Res. Commun. 240:341, 1997) were evaluated in cell based assay systems for export of FGF1:Syn-1 complexes in vitro. […]

[4] = tested on: NIH 3T3 FGF-1 transfectants; assay: Heat shock induced FGF-1 and p40 Syn-1 release by FGF-1 transfectants, immunoblot of conditioned media; type: cell-based, murine
Protocol: Chemical derivatives of amlexanox were tested for their effects on FGF-1 and p40 Syn-1 release by NIH 3T3 FGF-1 transfectants in response to heat shock. Media were conditioned by three 150 mm dishes of NIH3T3 cells stably transfected with FGF-1α (residues 21-154) after exposure to 41.5° C. for 90 min with or without amlexanox or the indicated amlexanox derivative. The media were collected and resolved by 12.5% acrylamide SDS-PAGE under reducing conditions followed by immunoblot analysis for FGF-1 as described herein.
(FIG. 19: Lane 1: media derived from NIH3T3 cell FGF-1 transfectants following heat shock in the absence of any drug; Lanes 2 through 4: media derived from NIH3T3 cell FGF-1 transfectants following heat shock in the presence of 1×10^−6 M, 1×10^−5 M, 1×10^−4 M, A673 (amlexanox) respectively; Lanes 5 through 7: media derived from NIH3T3 cell FGF-1 transfectants following heat shock in the presence of 1×10^−6 M, 1×10^−5 M, 1×10^−4 M AA617 respectively; Lanes 8 through 10: media derived from NIH3T3 cell FGF-1 transfectants following heat shock in the presence of 1×10^−6 M, 1×10^−5 M, 1×10^−4 M AA648 respectively; Lanes 11 through 13: media derived from NIH3T3 cell FGF-1 transfectants following heat shock in the presence of 1×10^−6 M, 1×10^−5 M, 1×10^−4 M, AA777 respectively; Lane 14: media derived from NIH3T3 cell FGF-1 transfectants maintained at 37° C. for 90 min; Lane 15, 50 ng of recombinant human FGF-1α. The structures of amlexanox (AA673) and its derivatives are also shown.

[5] = tested on: 3T3 cell line transfected with a chimeric FGF-1 construct having a functional signal sequence; assay: Secretion by 3T3 cell line transfected with chimeric FGF-1 construct having a functional signal sequence (classical ER-Golgi pathway); type: cell-based; settings: not shown
Excerpt: In a concentration dependent fashion, amlexanox inhibited the release of both FGF-1-β-gal and Syn-1 from NIH 3T3 FGF-1-β-gal:p65 Syn-1 co-transfectants in response to heat shock (FIG. 17). […] A 3T3 cell line transfected with a chimeric FGF-1 construct having a functional signal sequence for secretion via the classical ER-Golgi protein secretory pathway (Forough et al., J. Biol. Chem. 268:2960, 1993) was unaffected by amlexanox by several phenotypic criteria, including secretory activity (not shown).

[6] = tested on: NIH-3T3 FGF-1-β-gal:p40 Syn-1 co-transfectants; assay: p40 Syn-1 release from p40 Syn-1 co-transfectants at 37° C. or after heat shock, Syn-1 immunoblot; type: cell-based, murine; settings: FIG. 18
Protocol: Amlexanox was also tested for an effect on the heat shock response of NIH-3T3 FGF-1-β-gal:p40 Syn-1 co-transfectants described above in Example 11. Media were conditioned by two 150 mm dishes of NIH3T3 cells stably co-transfected with FGF-1:β-Gal and rat p40 Syn-1 after exposure to temperature stress (41.5° C., 90 min) with or without treatment. The media were collected and resolved by 10% acrylamide SDS-PAGE under reducing conditions followed by immunoblot analysis for Syn-1 as described herein and in the cited references.
(FIG. 18: Lane 1: media derived from NIH3T3 cell FGF-1:β-Gal and p40 Syn1 co-transfectants maintained at 37° C. for 90 min. Lane 2: media derived from NIH3T3 cell FGF-1:β-gal and p40 Syn-1 co-transfectants following heat shock. Lanes 3 and 4: media derived from NIH3T3 cell FGF-1:β-gal and p40 Syn-1 co-transfectants maintained at 37° C. in the presence of 5×10^−5M, and […] AA673 (amlexanox) respectively. Lane 5: media derived from NIH3T3 cell FGF-1:β-gal and p40 Syn-1 co-transfectants following heat shock in the presence of 3×10^−4M, AA673. Lane 6: 50 ng of recombinant rat p40 Syn-1.)

[7] = target: the molecule itself; assay: Cu2+ oxidation, non-reduced SDS-PAGE
Protocol: Purified FGF-1 and p40 Syn-1 were incubated with, and without, Cu²⁺ for 10 min. and resolved on two non-reduced SDS-PAGE gels (A and B), as described by Maciag et al., Recent Prog. Horm. Res. 49:105-123 (1993). The systems were identical except gel 5B was immunoblotted with FGF-1 antibody, whereas gel 5A was not.
However, when FGF-1 and p40 Syn-1 were added together, non-reduced SDS-PAGE was able to resolve a unique component with an apparent Mᵣ˜66,000 (FIG. 6A). To determine whether this band contained FGF-1, this experiment was repeated and analyzed by FGF-1 immunoblot analysis.

[8] = 41.5° C. for 90 min, 1×10^−6 M, 1×10^−5 M, 1×10^−4 M, FIG. 19

## Cc1c2oc3c(C)ccc(C(=O)N[C@@H]4C(=O)N[C@H](C(C)C)C(=O)N5CCC[C@H]5C(=O)N(C)CC(=O)N(C)[C@@H](C(C)C)C(=O)O[C@@H]4C)c3nc-2c(C(=O)N[C@@H]2C(=O)N[C@H](C(C)C)C(=O)N3CCC[C@H]3C(=O)N(C)CC(=O)N(C)[C@@H](C(C)C)C(=O)O[C@@H]2C)c(N)c1=O [actinomycin D] (I: T[dV]P[Sar][NMeV] / II: T[dV]P[Sar][NMeV]; ester I:1-I:C, II:1-II:C; linker I:N-II:N via Actinocin(9to1))
[1]
  heat shock induced release of p40: inhibited
[2]
  release of latent FGF-1: inhibited

## CC(C)c1ccc2oc3nc(N)c(C(=O)O)cc3c(=O)c2c1 [amlexanox]
[3]
  release of FGF-1-β-gal in response to heat shock: inhibited; also recorded: inhibition
  release of Syn-1 in response to heat shock: inhibited; also recorded: inhibition
[4]; [8]
  FGF-1 release in response to temperature stress: inhibition
  p40 Syn-1 release in response to temperature stress: inhibition
[4]; NIH 3T3 cell line stably transfected with FGF-1 instead of FGF-1-β-gal, not shown
  FGF-1 release in response to heat shock: inhibited FGF-1 release
[5]
  effect on phenotypic criteria, including secretory activity: unaffected
[6]; 37° C., 5×10^−5M and 3×10^−1M AA673
  constitutive release of p40 Syn-1: no effect
[6]; heat shock 41.5° C., 90 min, 3×10^−4M AA673
  enhanced p40 export in response to heat shock: did inhibit

## C[C@H]1CCC/C=C/[C@@H]2C[C@H](O)C[C@H]2[C@H](O)/C=C/C(=O)O1 [brefeldin A]
[1]
  heat shock induced release of p40: unaffected

## C[C@@H]1C[C@@H]([C@H](O)CC2CC(=O)NC(=O)C2)C(=O)[C@@H](C)C1 [cycloheximide]
[1]
  heat shock induced release of p40: inhibited
[2]
  release of latent FGF-1: inhibited

B1: recombinant human p40 Syn-1 (other, UniProt P21579 104-422, looked up)
chain: MKDVKDLGKTMKDQALKDDDAETGLTDGEEKEEPKEEEKLGKLQYSLDYDFQNNQLLVGIIQAAELPALDMGGTSDPYVKVFLLPDKKKKFETKVHRKTLNPVFNEQFTFKVPYSELGGKTLVMAVYDFDRFSKHDIIGEFKVPMNTVDFGHVTEEWRDLQSAEKEEQEKLGDICFSLRYVPTAGKLTVVILEAKNLKKMDVGGLSDPYVKIHLMQNGKRLKKKKTTIKKNTLNPYYNESFSFEVPFEQIQKVQVVVTVLDYDKIGKNDAIGKVFVGYNSTGAELRHWSDMLANPRRPIAQWHTLQVEEEVDAMLAVKK
notes: domain: p40 form of Syn-1; also called p45; p40/45
[7]
  binding result: no binding
